Source: US20250154169A1, “COMPOUNDS AND METHODS FOR MODULATING SPLICING” (REMIX THERAPEUTICS INC., priority 2021, published 2025)

Columns and labels:
HTT mRNA = experiment: Splicing RT-qPCR assay, HTT canonical (CJ) and alternative (AJ) junction mRNA; format: cell-based, human; settings: Homo sapiens, A673 or K562 cells, 24 hours compound treatment; for IC50: 24 h, read-out: HTT CJ (IC50, decrease in canonical junction mRNA); for AC50: read-out: HTT AJ (AC50, increase in alternative junction mRNA)
Experimental: (§1) Compounds described herein were used to modulate RNA transcript abundance in cells. The expression of a target mRNA was measured by detecting the formation of an exon-exon junction in the canonical transcript (CJ). A compound mediated exon-inclusion event was detected by observing an increase in formation of a new junction with an alternative exon (AJ). Real-time qPCR assays were used to detect these splicing switches and interrogate the potency of various compounds towards different target genes. A high-throughput real time quantitative PCR (RT-qPCR) assay was developed to measure these two isoforms of the mRNA (CJ and AJ) for exemplary genes, such as HTT, SMN2, and MYB, together with a control housekeeping gene, GAPDH or GUSB or PPIA, used for normalization. Briefly, the A673 or K562 cell line was treated with various compounds described herein (e.g., compounds of Formula (I)). After treatment, the levels of the HTT, MYB, or SMN2 mRNA targets were determined from each sample of cell lysate by cDNA synthesis followed by qPCR.
(§2) • Cells-to-CT 1-step kit: ThermoFisher A25602, Cells-to-CT lysis reagent: ThermoFisher 4391851C, TaqMan™ Fast Virus 1-Step Master Mix: ThermoFisher 4444436 • GAPDH: VIC-PL, ThermoFisher 4326317E (Assay: Hs99999905_m1)—used for K562/suspension cell lines • GUSB: VIC-PL, ThermoFisher 4326320E (Assay: Hs99999908_m1)—used for K562/suspension cell lines • PPIA: VIC-PL, ThermoFisher 4326316E (Assay: Hs99999904_m1)—used for A673/adherent cell lines
(§3) The A673 cell line was cultured in DMEM with 10% FBS. Cells were diluted with full growth media and plated in a 96-well plate (15,000 cells in 100 ul media per well). The plate was incubated at 37° C. with 5% CO2 for 24 hours to allow cells to adhere. An 11-point 3-fold serial dilution of the compounds was made in DMSO then diluted in media in an intermediate plate. Compounds were transferred from the intermediate plate to the cell plate with the top dose at a final concentration of 10 uM in the well. Final DMSO concentration was kept at or below 0.25%. The cell plate was returned to the incubator at 37° C. with 5% CO2 for an additional 24 hours.
(§4) The K562 cell line was cultured in IMDM with 10% FBS. For K562, cells were diluted with full growth media and plated in either a 96-well plate (50,000 cells in 50 uL media per well) or a 384-well plate (8,000-40,000 cells in 45 uL media per well). An 11-point 3-fold serial dilution of the compounds were made in DMSO then diluted in media in an intermediate plate. Compound was transferred from the intermediate plate to the cell plate with the top dose at a final concentration of 10 uM in the well. Final DMSO concentration was kept at or below 0.25%. Final volume was 100 uL for 96-well plate and 50 uL for 384-well plate. The cell plate was then placed in an incubator at 37° C. with 5% CO2 for 24 hours.
(§5) The cells were then gently washed with 50 uL-100 uL cold PBS before proceeding to addition of lysis buffer. 30 uL-50 uL of room temperature lysis buffer with DNAse I (and optionally RNAsin) was added to each well. Cells were shaken/mixed thoroughly at room temperature for 5-10 minutes for lysis to take place and then 3 uL-5 uL of room temperature stop solution was added and wells were shaken/mixed again. After 2-5 minutes, the cell lysate plate was transferred to ice for RT-qPCR reaction setup. The lysates could also be frozen at −80° C. for later use.
(§6) In some cases, a direct lysis buffer was used. An appropriate volume of 3× lysis buffer (10 mM Tris, 150 mM NaCl, 1.5%-2.5% Igepal and 0.1-1 U/uL RNAsin, pH 7.4) was directly added to either K562 or A673 cells in media and mixed by pipetting 3 times. The plates were then incubated at room temperature with shaking/rocking for 20-50 minutes to allow for lysis to take place. After this time, the cell lysate plate was transferred to ice to set up for the RT-qPCR reactions. The lysates could also be frozen at −80° C. for later use. […]

MYB mRNA = experiment: Splicing RT-qPCR assay, MYB canonical (CJ) and alternative (AJ) junction mRNA; format: cell-based, human; settings: Homo sapiens, 24 h, A673 or K562 cells, 24 hours compound treatment, RT-qPCR; for AC50: read-out: MYB AJ (AC50, increase in alternative junction mRNA); for IC50: read-out: MYB CJ (IC50, decrease in canonical junction mRNA)
Experimental: as §1, §2, §3, §4, §5, §6

| Compound | IC50 (HTT mRNA) [nM] | AC50 (HTT mRNA) [nM] | AC50 (MYB mRNA) [nM] | IC50 (MYB mRNA) [nM] |
| --- | --- | --- | --- | --- |
| CN[C@@H]1CCN(c2ccc(C(=O)Nc3cn4cc(C)nc4c(OC4CC4)n3)c3nn(C)cc23)C1 [Compound 626, N-{8-cyclopropoxy-2-methylimidazo[1,2-a]pyrazin-6-yl}-2-methyl-4-[(3R)-3-(methylamino)pyrrolidin-1-yl]indazole-7-carboxamide] | 1000 to 10000 | 1000 to 10000 | 100 to 1000 | 100 to 1000 |
| Cc1cn2cc(NC(=O)c3ccc(N4CC[C@@H](NC5COC5)C4)c4cn(C)nc34)cc(F)c2n1 [Compound 531, N-{8-fluoro-2-methylimidazo[1,2-a]pyridin-6-yl}-2-methyl-4-[(3R)-3-(oxetan-3-ylamino)pyrrolidin-1-yl]indazole-7-carboxamide] | 1000 to 10000 | 1000 to 10000 | 1000 to 10000 | 100 to 1000 |
| CCn1cc2c(N3CCNCC3)ccc(C(=O)Nc3cc(F)c4nc(CO)oc4c3)c2n1 [Compound 582, 2-ethyl-N-[4-fluoro-2-(hydroxymethyl)-1,3-benzoxazol-6-yl]-4-(piperazin-1-yl) indazole-7-carboxamide] | 100 to 1000 | 100 to 1000 | 100 to 1000 | 100 to 1000 |
| C=CCn1cc2c(N3CCNCC3)ccc(C(=O)Nc3cc(F)c4nc(C)cn4c3)c2n1 [Compound 392, N-{8-fluoro-2-methylimidazo[1,2-a]pyridin-6-yl}-4-(piperazin-1-yl)-2-(prop-2-en-1-yl) indazole-7-carboxamide] | 1000 to 10000 | 1000 to 10000 | < 100 | < 100 |
| Cc1cn2cc(NC(=O)c3ccc(N4CCNCC4)c4cn(C)nc34)nc(C#N)c2n1 [Compound 507, N-{8-cyano-2-methylimidazo[1,2-a]pyrazin-6-yl}-2-methyl-4-(piperazin-1-yl) indazole-7-carboxamide] | 1000 to 10000 | 1000 to 10000 | 100 to 1000 | 100 to 1000 |
| COCCn1cc2c(N3CCNCC3)ccc(C(=O)Nc3cn4cc(C)nc4c(OC)n3)c2n1 [Compound 510, N-{8-methoxy-2-methylimidazo[1,2-a]pyrazin-6-yl}-2-(2-methoxyethyl)-4-(piperazin-1-yl) indazole-7-carboxamide] | 1000 to 10000 | 1000 to 10000 | 100 to 1000 | 100 to 1000 |
| Cc1cn2cc(NC(=O)c3ccc(N4CCNCC4)c4cn(C)nc34)ccc2n1 [Compound 518, 2-methyl-N-{2-methylimidazo[1,2-a]pyridin-6-yl}-4-(piperazin-1-yl) indazole-7-carboxamide] | 1000 to 10000 | 1000 to 10000 | < 100 | 100 to 1000 |
| CCn1cc2c(N3CC[C@H](NC)C3)cc(F)c(C(=O)Nc3cc(F)c4nc(C)cn4c3)c2n1 [Compound 478, 2-ethyl-6-fluoro-N-{8-fluoro-2-methylimidazo[1,2-a]pyridin-6-yl}-4-[(3S)-3-(methylamino)pyrrolidin-1-yl]indazole-7-carboxamide; bis(trifluoroacetic acid)] | 1000 to 10000 | > 10000 | 100 to 1000 | < 100 |
| CCC(=O)CN[C@@H]1CCN(c2ccc(C(=O)Nc3cc(F)c4nc(C)cn4c3)c3nn(C)cc23)C1 [Compound 641] | 1000 to 10000 | 1000 to 10000 | < 100 | < 100 |
| Cc1cn2cc(NC(=O)c3ccc(N4CC[C@@H](NC5CC56CCOCC6)C4)c4cn(C)nc34)cc(F)c2n1 (stereo partly shown) [Compound 649] | > 10000 | > 10000 | 100 to 1000 | 100 to 1000 |
| CN1CCN(c2ccc(C(=O)Nc3cc(F)c4nc(CO)oc4c3)c3nn(C)cc23)CC1 [Compound 494, N-[4-fluoro-2-(hydroxymethyl)-1,3-benzoxazol-6-yl]-2-methyl-4-(4-methylpiperazin-1-yl) indazole-7-carboxamide] | > 10000 | > 10000 | > 10000 | > 10000 |
| CCn1cc2c(N3C[C@@H](C)N[C@@H](C(C)C)C3)ccc(C(=O)Nc3cc(F)c4nc(C)cn4c3)c2n1 [Compound 600, 2-ethyl-N-{8-fluoro-2-methylimidazo[1,2-a]pyridin-6-yl}-4-[(3S,5R)-3-isopropyl-5-methylpiperazin-1-yl] indazole-7-carboxamide] | > 10000 | > 10000 | 1000 to 10000 | 1000 to 10000 |
| COc1nc(NC(=O)c2ccc(N3CCNCC3)c3cn(C)nc23)cc2oc(C)nc12 [Compound 529, N-{4-methoxy-2-methyl-[1,3]oxazolo[4,5-c]pyridin-6-yl}-2-methyl-4-(piperazin-1-yl) indazole-7-carboxamide] | < 100 | 100 to 1000 | < 100 | < 100 |
| Cn1cc2c(N3CCNCC3)ccc(C(=O)Nc3cc(F)c4nc(CF)oc4c3)c2n1 [Compound 514, N-[4-fluoro-2-(fluoromethyl)-1,3-benzoxazol-6-yl]-2-methyl-4-(piperazin-1-yl) indazole-7-carboxamide] | 100 to 1000 | 100 to 1000 | < 100 | < 100 |
| C=Cn1cc2c(N3CCC(NC)CC3)ccc(C(=O)Nc3cc(F)c4nc(C)cn4c3)c2n1 [Compound 502, 2-ethenyl-N-{8-fluoro-2-methylimidazo[1,2-a]pyridin-6-yl}-4-[4-(methylamino)piperidin-1-yl]indazole-7-carboxamide] | < 100 | 100 to 1000 | < 100 | < 100 |
| CCn1cc2c(N3CCNCC3)ccc(C(=O)Nc3cn4cc(C)nc4c(Cl)n3)c2n1 [Compound 604, N-{8-chloro-2-methylimidazo[1,2-a]pyrazin-6-yl}-2-ethyl-4-(piperazin-1-yl) indazole-7-carboxamide] | > 10000 | > 10000 | 1000 to 10000 | 1000 to 10000 |
| CCn1cc2c(N3C[C@@H](F)[C@H](NC)C3)ccc(C(=O)Nc3cc(F)c4nc(C)cn4c3)c2n1 [Compound 584, 2-ethyl-N-{8-fluoro-2-methylimidazo[1,2-a]pyridin-6-yl}-4-[(3R,4R)-3-fluoro-4-(methylamino)pyrrolidin-1-yl]indazole-7-carboxamide] | 1000 to 10000 | 1000 to 10000 | 100 to 1000 | 100 to 1000 |
| CCn1cc2c(N3CCC(NC4C5CNCC54)CC3)ccc(C(=O)Nc3cc(F)c4nc(C)cn4c3)c2n1 (stereo not shown) [Compound 580, 4-(4-{3-azabicyclo[3.1.0]hexan-6-ylamino}piperidin-1-yl)-2-ethyl-N-{8-fluoro-2-methylimidazo[1,2-a]pyridin-6-yl}indazole-7-carboxamide; bis(trifluoroacetic acid)] | > 10000 | > 10000 | 1000 to 10000 | 100 to 1000 |
| C=CCN[C@@H]1CCN(c2ccc(C(=O)Nc3cc(F)c4nc(C)cn4c3)c3nn(C)cc23)C1 [Compound 554, N-{8-fluoro-2-methylimidazo[1,2-a]pyridin-6-yl}-2-methyl-4-[(3R)-3-(prop-2-en-1-ylamino)pyrrolidin-1-yl]indazole-7-carboxamide] | > 10000 | > 10000 | < 100 | 100 to 1000 |
